Test results published in patent USRE38257E1, “Piperdine derivatives and hypotensives containing the same” (Ajinomoto Co., Inc., priority 1988, dated 2003).

Tested on: male spontaneously hypertensive rats
Test: Decrease in systolic blood pressure in spontaneously hypertensive rats after intravenous bolus injection, indirect (tail-cuff) method
Type: in vivo, rat
Details: for Decrease in systolic blood pressure (mmHg) time after administration (hour) 0.5: 0.5 hour after administration; for Decrease in systolic blood pressure (mmHg) time after administration (hour) 4: 4 hours after administration
Method: As test animals, four male spontaneously hypertensive rats (weight 400 to 440 g) that were sufficiently adapted for feeding and in which hypertension was confirmed were used.
Physiological saline aqueous solution containing 2.5% Nicolle and 2.5% ethanol of sample was intravenously administered by bolus injection at a dose of 1 ml per 1 kg of body weight. Systolic blood pressure after administration was measured by the indirect (tail-cuff) method.

[1] = dose 10 mg/kg i.v. bolus, hydrochloride, 10 mg/kg

Structure (SMILES) | Decrease in systolic blood pressure (mmHg) time after administration (hour) 0.5 (dose 10 mg/kg i.v. bolus) [mmHg] | Decrease in systolic blood pressure (mmHg) time after administration (hour) 4 (dose 10 mg/kg i.v. bolus) [mmHg] | Decrease in systolic blood pressure (mmHg) time after administration (hour) 0.5 (dose 3 mg/kg i.v. bolus) [mmHg] | Decrease in systolic blood pressure (mmHg) time after administration (hour) 4 (dose 3 mg/kg i.v. bolus) [mmHg] | other results
COc1ccc(CCCCN2CCC(=C3c4ccccc4C=Cc4ccccc43)CC2)cc1NC(C)=O.Cl [Example 282, 1-(3-Acetylamino-4-methoxyphenyl)-4-(4-(5H-dibenzo[a,d]cyclohepten-5-ylidene)-1-piperidinyl)butane hydrochloride] | −72 | −15 |  |  | 
C1=Cc2ccccc2C(=C2CCN(CCCCC3CCCCC3)CC2)c2ccccc21.Cl [Example 283, 4-(4-(4-(5H-Dibenzo[a,d]cyclohepten-5-ylidene)-1-piperidinyl)-1-butyl)cyclohexane hydrochloride] |  |  |  |  | Decrease in systolic blood pressure (mmHg) time after administration (hour) 0.5 [1]: −112 mmHg; Decrease in systolic blood pressure (mmHg) time after administration (hour) 4 [1]: 4 mmHg
COc1cccc(CCCN2CCC(=C3c4ccccc4C=Cc4ccccc43)CC2)c1OC.Cl [Example 286, 3-(4-(5H-Dibenzo[a,d]cyclohepten-5-ylidene)-1-piperidinyl)-1-(2,3-dimethoxyphenyl)propane hydrochloride] | −134 | −40 |  |  | 
COc1cc2c(cc1OC)CC(CN1CCC(=C3c4ccccc4C=Cc4ccccc43)CC1)C2.Cl [Example 287, 2-(4-(5H-Dibenzo[a,d]cyclohepten-5-ylidene)-1-piperidinyl)methyl-5′,6′-dimethoxyindan hydrochloride] | −83 | −16 |  |  | 
C1=Cc2ccccc2C(=C2CCN(CCCc3ccncc3)CC2)c2ccccc21.Cl.Cl [Example 289, 3-(4-(5H-Dibenzo[a,d]cyclohepten-5-ylidene)-1-piperidinyl)-1-(4-pyridyl)propane dihydrochloride] |  |  | −20 | 10 | 
Cl.O=C(NCCN1CCCCC1=C1c2ccccc2C=Cc2ccccc21)c1cccc([N+](=O)[O-])c1 [Example 290, N-(2-(5H-Dibenzo[a,d]cyclohepten-5-ylidene)-1-piperidinyl)ethyl-3-nitrobenzamide hydrochloride] |  |  | −15 | 15 | 
Cl.O=C(NCCN1CCCCC1=C1c2ccccc2C=Cc2ccccc21)c1ccccc1[N+](=O)[O-] [Example 291, N-(2-(5H-Dibenzo[a,d]cyclohepten-5-ylidene)-1-piperidinyl)ethyl-2-nitrobenzamide hydrochloride] |  |  | −8 | 15 | 
COc1ccc(C(=O)NCCN2CCCCC2=C2c3ccccc3C=Cc3ccccc32)c(OC)c1.Cl [Example 292, N-(2-(5H-Dibenzo[a,d]cyclohepten-5-ylidene)-1-piperidinyl)ethyl-2,4-dimethoxybenzamide hydrochloride] |  |  | −31 | 3 | 
C1=Cc2ccccc2C(=C2CCN(CCCCc3ccc[nH]3)CC2)c2ccccc21.Cl [Example 293, 4-(4-(5H-Dibenzo[a,d]cyclohepten-5-ylidene)-1-piperidinyl)-1-(2-pyrolle)-1-butane hydrochloride] | −122 | 4 |  |  | 
CC(=O)N1CCCCC1CCCN1CCC(=C2c3ccccc3C=Cc3ccccc32)CC1.Cl (centres unmarked) [Example 294, 1-(N-Acetyl-2-piperidinyl)-3-(4-(5H-Dibenzo[a,d]cyclohepten-5-ylidene)-1-piperidinyl)propane hydrochloride] |  |  | −17 | 7 | 
CN1CCCC(CCCCN2CCC(=C3c4ccccc4C=Cc4ccccc43)CC2)C1.Cl.Cl (centres unmarked) [Example 295, 4-(4-(5H-Dibenzo[a,d]cyclohepten-5-ylidene)-1-piperidinyl)-1-(N-methyl-3-piperidinyl)butane dihydrochloride] |  |  | −36 | 1 | 
Cl.OC1CCC(CCCCN2CCC(=C3c4ccccc4C=Cc4ccccc43)CC2)CC1 (centres unmarked) [Example 296, 1-(1-(4-Hydroxy)cyclohexyl)-4-(4-(5H-dibenzo[a,d]cyclohepten-5-ylidene)-1-piperidinyl)butane hydrochloride] | −109 | −14 |  |  | 
Cl.N#CC1CCC(CCCCN2CCC(=C3c4ccccc4C=Cc4ccccc43)CC2)CC1 (centres unmarked) [Example 297, 1-(1-(4-Cyano)cyclohexyl)-4-(4-(5H-Dibenzo[a,d]cyclohepten-5-ylidene)-1-piperidinyl)butane hydrochloride] | −129 | −57 |  |  | 
COc1ccccc1CCCN1CCC(=C2c3ccccc3C=Cc3ccccc32)CC1.Cl [Example 298, 3-(4-(5H-Dibenzo[a,d]cyclohepten-5-ylidene)-1-piperidinyl)-1-(2-methoxyphenyl)propane hydrochloride] | −111 | −31 |  |  | 
COC1CCCC(CCCCN2CCC(=C3c4ccccc4C=Cc4ccccc43)CC2)C1.Cl (centres unmarked) [Example 299, 1-(1-(3-Methoxy)cyclohexyl)-4-(4-(5H-dibenzo[a,d]cyclohepten-5-ylidene)-1-piperidinyl)butane hydrochloride] | −134 | −45 |  |  | 
Cl.OC1CCCC(CCCCN2CCC(=C3c4ccccc4C=Cc4ccccc43)CC2)C1 (centres unmarked) [Example 300, 1-(1-(3-Hydroxyoxy)cyclohexyl)-4-(4-(5H-dibenzo[a,d]cyclohepten-5-ylidene)-1-piperidinyl)butane hydrochloride] | −97 | −22 |  |  | 
Cl.O=C1CCCC(CCCCN2CCC(=C3c4ccccc4C=Cc4ccccc43)CC2)C1 (centres unmarked) [Example 301, 3-(4-(4-(5H-Dibenzo[a,d]cyclohepten-5-ylidene)-1-piperidinyl)-1-butyl)cyclohexanoe hydrochloride] | −100 | −12 |  |  | 
Cl.O=[N+]([O-])c1ccccc1C=CCN1CCC(=C2c3ccccc3C=Cc3ccccc32)CC1 [Example 302, 4-(5H-Dibenzo[a,d]cyclohepten-5-ylidene)-1-(2-nitrocinnamyl)piperidinyl hydrochloride] | −83 | −41 |  |  | 
Cl.Nc1ccccc1C=CCN1CCC(=C2c3ccccc3C=Cc3ccccc32)CC1 [Example 303, 1-(2-Aminocinnamyl)-4-(5H-dibenzo[a,d]cyclohepten-5-ylidene)-1-piperidine hydrochloride] |  |  | −90 | −19 | 
CC(=O)Nc1ccccc1C=CCN1CCC(=C2c3ccccc3C=Cc3ccccc32)CC1.Cl [Example 304, 1-(2-Acetylaminocinnamyl)-4-(5H-dibenzo[a,d]cyclohepten-5-ylidene)-1-piperidine hydrochloride] | −49 | −5 |  |  | 
C1=Cc2ccccc2C(=C2CCN(CCCCC3CCOCC3)CC2)c2ccccc21.Cl [Example 305, 4-(4-(4-(5H-Dibenzo[a,d]cyclohepten-5-ylidene)-1-piperidinyl)-1-butyl)tetrahydropyran hydrochloride] | −95 | −9 |  |  | 
Cl.O=[N+]([O-])c1cccc(C=CCN2CCC(=C3c4ccccc4C=Cc4ccccc43)CC2)c1 [Example 306, 4-(5H-Dibenzo[a,d]cyclohepten-5-ylidene)-1-(3-nitrocinnamyl)piperidine hydrochloride] | −138 | −37 |  |  | 
C1=Cc2ccccc2C(=C2CCN(CCCC3CCCCN3)CC2)c2ccccc21.Cl.Cl (centres unmarked) [Example 307, 3-(4-(5H-Dibenzo[a,d]cyclohepten-5-ylidene)-1-piperidinyl)-1-(2-piperidinyl)propane dihydrochloride] | −62 | −20 |  |  | 
CC(=O)N1CCC(CCCN2CCC(=C3c4ccccc4C=Cc4ccccc43)CC2)CC1.Cl [Example 308, 1-(N-acetyl-4-piperidinyl)-3-(4-(5H-dibenzo[a,d]cyclohepten-5-ylidene)-1-piperidinyl)propane hydrochloride] |  |  | −27 | −5 | 
C1=Cc2ccccc2C(=C2CCN(CCC3Cc4ccccc4C3)CC2)c2ccccc21.Cl [Example 310, 2-(2-(4-(5H-Dibenzo[a,d]cyclohepten-5-ylidene)-1-piperidinyl)-1-ethyl)indane hydrochloride] | −90 | −18 |  |  | 
